The target in this assay is 5-hydroxytryptamine receptor 2A (Homo sapiens) (UniProt P28223). Briefly: Agonist activity at 5-HT2A (unknown origin) expressed in HEK293 cells assessed as increase in calcium influx by measuring maximal efficacy incubated for 50 mins by Fluo-4 dye based FLIPR assay relative to control. Conditions: filed as agonist. The format is functional, cell-based.
5-hydroxytryptamine receptor 2A (Homo sapiens), sequence (P28223 whole entry): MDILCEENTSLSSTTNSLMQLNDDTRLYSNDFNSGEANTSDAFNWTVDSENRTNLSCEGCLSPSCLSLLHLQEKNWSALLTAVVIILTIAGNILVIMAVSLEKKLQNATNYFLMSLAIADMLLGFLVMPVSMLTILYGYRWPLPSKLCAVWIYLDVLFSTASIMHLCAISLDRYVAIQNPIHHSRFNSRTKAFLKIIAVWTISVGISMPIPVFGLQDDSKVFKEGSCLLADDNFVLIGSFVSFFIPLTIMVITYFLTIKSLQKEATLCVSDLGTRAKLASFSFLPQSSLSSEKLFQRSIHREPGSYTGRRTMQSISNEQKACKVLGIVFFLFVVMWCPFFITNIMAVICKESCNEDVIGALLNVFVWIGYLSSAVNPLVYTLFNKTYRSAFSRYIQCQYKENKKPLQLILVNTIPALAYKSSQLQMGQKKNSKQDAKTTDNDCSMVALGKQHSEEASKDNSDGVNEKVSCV

The Emax is the maximal effect, on the per cent scale that the assay sets. Regarding `CCN(C)CCc1cccc2cccc(O)c12`, the maximal effect (Emax) was found to be 68%. With `CN(CCc1cccc2cccc(O)c12)C1CC1` the figure was 64%; with `COc1cccc(CNCCc2cccc3ccc(OC)cc23)c1`, 84%. Regarding `CN(C)CCc1cccc2cccc(O)c12`, the maximal response (Emax) worked out at 73%. As to `CC(C)N(C)CCc1cccc2cccc(O)c12`, the Emax stood at 79%. `COc1ccc2cccc(CCN(C)C)c2c1`: the Emax came out at 79%. Take `CCN(C)CCc1cccc2ccc(OC)cc12`: the Emax stood at 63%.

For the origin of these results see ChEMBL document CHEMBL5608248, “Exploring the Therapeutic Potential of Entheogens in Postoperative Cognitive Decline and Psychological Resilience” (ACS Med Chem Lett, 2024).
